System: KRAS PDC tumor spheroids (HUVEC+MSC), viability
Assay: Anticancer human tumor 254851-301-R-J1-PDC patient-derived colon carcinoma cell line growth inhibition [KRAS2]
Conditions: for IC50: curve of first compound; for viability, T/C: stronger effect = lower value
In short: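 KRAS-mutant tumor cells were grown as spheroids with HUVEC endothelial cells and human MSCs as stroma. Targeted agents were tested alone and with KRAS pathway inhibitors. Doses started at or near clinical Cmax, or 10 microM, descending half-log.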

[1] = second compound 0.1 µM, first compound 0.0316 µM
[2] = second compound 0.316 µM, first compound 0.0316 µM
[3] = second compound 1 µM, first compound 0.0316 µM
[4] = second compound 3.16 µM, first compound 0.0316 µM
[5] = second compound 10 µM, first compound 0.0316 µM
[6] = second compound 0.1 µM, first compound 0.1 µM
[7] = second compound 0.1 µM, first compound 0.316 µM
[8] = second compound 0.1 µM, first compound 1 µM
[9] = second compound 0.1 µM, first compound 3.16 µM
[10] = second compound 0.1 µM, first compound 10 µM
[11] = second compound 0.316 µM, first compound 0.1 µM
[12] = second compound 0.316 µM, first compound 0.316 µM
[13] = second compound 0.316 µM, first compound 1 µM
[14] = second compound 0.316 µM, first compound 3.16 µM
[15] = second compound 0.316 µM, first compound 10 µM
[16] = second compound 1 µM, first compound 0.1 µM
[17] = second compound 1 µM, first compound 0.316 µM
[18] = second compound 1 µM, first compound 1 µM
[19] = second compound 1 µM, first compound 3.16 µM
[20] = second compound 1 µM, first compound 10 µM
[21] = second compound 3.16 µM, first compound 0.1 µM
[22] = second compound 3.16 µM, first compound 0.316 µM
[23] = second compound 3.16 µM, first compound 1 µM
[24] = second compound 3.16 µM, first compound 3.16 µM
[25] = second compound 3.16 µM, first compound 10 µM
[26] = second compound 10 µM, first compound 0.1 µM
[27] = second compound 10 µM, first compound 0.316 µM
[28] = second compound 10 µM, first compound 1 µM
[29] = second compound 10 µM, first compound 3.16 µM
[30] = second compound 10 µM, first compound 10 µM
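Further: spheroids exposed to compounds for seven days before readout.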
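Wherever viability, T/C is given: 100% = DMSO vehicle control luminescence of the spheroids.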

CC(=O)Nc1cccc(-n2c(=O)n(C3CC3)c(=O)c3c(Nc4ccc(I)cc4F)n(C)c(=O)c(C)c32)c1 + CC1OCC2(CCN(c3cnc(Sc4ccnc(N)c4Cl)c(N)n3)CC2)C1N
IC50 (second compound 0.1 µM): 4.15 nM
IC50 (second compound 0.316 µM): 3.45 nM
IC50 (second compound 1 µM): 2.18 nM
IC50 (second compound 3.16 µM): 0.975 nM
IC50 (second compound 10 µM): 0.395 nM
viability, T/C (second compound 0.1 µM, first compound 0.0001 µM): 92.1%
viability, T/C (second compound 0.1 µM, first compound 0.000316 µM): 100%
viability, T/C (second compound 0.1 µM, first compound 0.001 µM): 85.7%
viability, T/C (second compound 0.1 µM, first compound 0.00316 µM): 63%
viability, T/C (second compound 0.1 µM, first compound 0.01 µM): 10.8%
viability, T/C [1]: 2.77%
viability, T/C (second compound 0.316 µM, first compound 0.0001 µM): 98.7%
viability, T/C (second compound 0.316 µM, first compound 0.000316 µM): 82%
viability, T/C (second compound 0.316 µM, first compound 0.001 µM): 87.3%
viability, T/C (second compound 0.316 µM, first compound 0.00316 µM): 53.8%
viability, T/C (second compound 0.316 µM, first compound 0.01 µM): 5.84%
viability, T/C [2]: 2.66%
viability, T/C (second compound 1 µM, first compound 0.0001 µM): 80.7%
viability, T/C (second compound 1 µM, first compound 0.000316 µM): 79%
viability, T/C (second compound 1 µM, first compound 0.001 µM): 75%
viability, T/C (second compound 1 µM, first compound 0.00316 µM): 38%
viability, T/C (second compound 1 µM, first compound 0.01 µM): 3.61%
viability, T/C [3]: 1.88%
viability, T/C (second compound 3.16 µM, first compound 0.0001 µM): 66.2%
viability, T/C (second compound 3.16 µM, first compound 0.000316 µM): 74.4%
viability, T/C (second compound 3.16 µM, first compound 0.001 µM): 49.4%
viability, T/C (second compound 3.16 µM, first compound 0.00316 µM): 4.29%
viability, T/C (second compound 3.16 µM, first compound 0.01 µM): 2.24%
viability, T/C [4]: 1.57%
viability, T/C (second compound 10 µM, first compound 0.0001 µM): 69.1%
viability, T/C (second compound 10 µM, first compound 0.000316 µM): 59.7%
viability, T/C (second compound 10 µM, first compound 0.001 µM): 9.76%
viability, T/C (second compound 10 µM, first compound 0.00316 µM): 2.21%
viability, T/C (second compound 10 µM, first compound 0.01 µM): 1.43%
viability, T/C [5]: 1.76%

COC(=O)c1ccc2c(C(=Nc3ccc(N(C)C(=O)CN4CCN(C)CC4)cc3)c3ccccc3)c(O)[nH]c2c1 + CC1OCC2(CCN(c3cnc(Sc4ccnc(N)c4Cl)c(N)n3)CC2)C1N
IC50 (second compound 0.1 µM): > 10000 nM
IC50 (second compound 0.316 µM): > 10000 nM
IC50 (second compound 1 µM): > 10000 nM
IC50 (second compound 3.16 µM): > 10000 nM
IC50 (second compound 10 µM): 2370 nM
viability, T/C [1]: 95.4%
viability, T/C [6]: 100%
viability, T/C [7]: 96%
viability, T/C [8]: 95%
viability, T/C [9]: 90.4%
viability, T/C [10]: 88.6%
viability, T/C [2]: 88.3%
viability, T/C [11]: 84.5%
viability, T/C [12]: 79.5%
viability, T/C [13]: 81.8%
viability, T/C [14]: 82%
viability, T/C [15]: 78.5%
viability, T/C [3]: 75.6%
viability, T/C [16]: 76.1%
viability, T/C [17]: 75.6%
viability, T/C [18]: 68.1%
viability, T/C [19]: 69.2%
viability, T/C [20]: 81.6%
viability, T/C [4]: 64.9%
viability, T/C [21]: 67.5%
viability, T/C [22]: 66%
viability, T/C [23]: 65.1%
viability, T/C [24]: 55.1%
viability, T/C [25]: 63%
viability, T/C [5]: 63.5%
viability, T/C [26]: 70%
viability, T/C [27]: 57.9%
viability, T/C [28]: 60.7%
viability, T/C [29]: 41.4%
viability, T/C [30]: 41.6%

COc1cc(Nc2ncc3c(n2)-c2ccc(Cl)cc2C(c2c(F)cccc2OC)=NC3)ccc1C(=O)O + CC1OCC2(CCN(c3cnc(Sc4ccnc(N)c4Cl)c(N)n3)CC2)C1N
IC50 (second compound 0.1 µM): 87.5 nM
IC50 (second compound 0.316 µM): 79 nM
IC50 (second compound 1 µM): 76.4 nM
IC50 (second compound 3.16 µM): 61.4 nM
IC50 (second compound 10 µM): 41.4 nM
viability, T/C [1]: 91.7%
viability, T/C [6]: 39.8%
viability, T/C [7]: 28.8%
viability, T/C [8]: 24.9%
viability, T/C [9]: 17.1%
viability, T/C [10]: 7.2%
viability, T/C [2]: 81.1%
viability, T/C [11]: 37%
viability, T/C [12]: 28.2%
viability, T/C [13]: 22.6%
viability, T/C [14]: 13.8%
viability, T/C [15]: 6.88%
viability, T/C [3]: 86.1%
viability, T/C [16]: 33.1%
viability, T/C [17]: 29.1%
viability, T/C [18]: 23.1%
viability, T/C [19]: 14.6%
viability, T/C [20]: 7.07%
viability, T/C [4]: 70.9%
viability, T/C [21]: 30.7%
viability, T/C [22]: 23.9%
viability, T/C [23]: 21.7%
viability, T/C [24]: 12.3%
viability, T/C [25]: 5.89%
viability, T/C [5]: 58.1%
viability, T/C [26]: 23.1%
viability, T/C [27]: 21.1%
viability, T/C [28]: 19.8%
viability, T/C [29]: 13.8%
viability, T/C [30]: 6.31%

Source: PubChem BioAssay AID1963868 (Molecular Pharmacology Branch, DTP, NCI, 2024)
